The test system of test [1] is histamine-induced bronchoconstriction. The experiment in a line: Antagonism of histamine-induced bronchoconstriction in guinea pigs. In kind it is in vivo, guinea pig (Hartley strain). Particulars: Cavia porcellus, po, 2 hour pretreatment; read-out: ID50 antagonism of histamine-induced bronchoconstriction. The method, then:
(g) Antagonism of PAF and Histamine-induced Bronchoconstriction in Guinea Pig
Spontaneously breathing male guinea pigs (Hartley strain) weighing 300-450 grams are dosed orally with test drug or control vehicle two hours prior to challenge with agonist. The animals are anesthetized with urethane (2 gm/kg) intraperitoneally and the jugular vein and trachea are cannulated. Two hours after dosing, the animal is paralyzed with succinylcholine (1.2 mg/kg, i.v.) and ventilated (Harvard rodent respirator) at 40 breaths/minutes and 2.5 cc tidal volume. Propranolol (0.1 mg/kg, i.v.) is administered and five minutes thereafter the animal is challenged with a constrictory dose of platelet activating factor (10 μg/kg, i.v.) or histamine dihydrochloride (20 μg/kg, i.v.). The change (cm H2 O) between pre and peak ventilatory pressure readings is averaged for three control animals and five drug treated animals. The percent inhibition is calculated from the following formula: (Control-Drug Treated/Control)×100.

In test [2] the test system is leukotriene E induced bronchoconstriction. The experiment in a line: Guinea pig bronchoconstriction, in vivo (aerosol). The settings on record: aerosol at concentration inhibiting bronchoconstriction by 80%. Also noted: species or system guinea pig (Hartly strain). The method, then: (c) Guinea Pig Bronchoconstriction, In Vivo (Aerosol):
Male guinea pigs (Hartly strain) weighing 300 to 500 g are anesthetized with urethane (2 g/kg) intraperitoneally and a polyethylene cannula is inserted into the jugular vein for drug administration. Tracheal pressure is recorded from a cannula inserted in the trachea and connected to a Statham pressure transducer. After surgical preparation of the animals, a period of time is allowed for pulmonary functions to stabilize. The test compound is administered according to the following protocol. Propranolol (0.1 mg/kg) is administered intravenously while the animals breathed spontaneously. Five minutes thereafter, the animals are exposed for a five minute period to a 1% (w/v) aerosol solution of test compound (adjusted to an alkaline pH where necessary for drug solubilization) or to distilled water of the appropriate pH (for control purposes). A Monaghan (Model 750) ultrasonic nebulizer is used to administer all test compounds by inhalation. The nebulizer ultrasonic frequency is adjusted to produce particles in the 1-8μ diameter range (average 3μ). Aqueous solutions are prepared fresh and introduced into the chamber of the nebulizer. The output of the nebulizer is made available to the animal by directing a bias flow of aerosol through a y tube connected to the tracheal cannula. At the end of the exposure period, the animals are paralyzed with succinylcholine (1.2 mg/kg, i.v.) and mechanically respirated (Harvard rodent respirator) at 40 breaths/minute and 2.5 cc tidal volume. Animals are then challenged with a maximum constrictory dose of leukotriene E delivered intravenously 30 seconds after administration of the succinylcholine.
The change (cm H2 O) between pre and peak ventilatory pressure readings is averaged for three control animals and five drug treated animals. The percent inhibition is calculated from the following formula:
(Control-Drug Tested/Control)×100
When various drug concentrations are tested, the percent inhibition at each concentration is plotted as log concentration (abscissa) versus percent inhibition (ordinate) and the IC50 is determined from linear regression analysis.
In order to determine the aerosol half-life (t 1/2), the animals are prepared as described above, except that the time between aerosol exposure and challenge with leukotriene E is varied. All compounds are administered at the concentration necessary to inhibit leukotriene-induced bronchoconstriction by 80%. Biological half-life is calculated from plots of time (abscissa) versus log percent inhibition (ordinate).

Test [3] deals with PAF induced mortality. The test is described as follows: Prevention of mortality induced by platelet aggregating factor (PAF). Type of test: in vivo, mice (CF1). Particulars: PAF 0.10 mg/kg i.v. On the procedure: (k) Prevention of Mortality Induced by Platelet Aggregating Factor (PAF)
Male CF1 mice weighing 20-30 gms (Carworth Farms Co.) are fed ad libitum.
Racemic 2-[[[2-(acetyloxy)-3-(octadecyloxy)propoxy]hydroxyphosphinyl]oxy]-N,N,N-trimethylethanaminium hydroxide inner salt hemihydrate (PAF) is concentrated in ethanol at a concentration of 1 mg/ml.At the time of experimentation, PAF is diluted in 0.1% BSA (bovine serum albumin) and administered intravenously at a dose of 0.10 mg/kg one hour after 10 mice are dosed with either vehicle (BSA) or drug. Mortality in mice treated with PAF occurs within 30 minutes after i.v. administration.

Consider `CC(C)c1ccc2nc3ccc(C(=O)NCCCCn4ccnc4)cn3c(=O)c2c1` [Compound A, N-[4-(1H-imidazol-1-yl)butyl]-2-(1-methylethyl)-11-oxo-11H-pyrido[2,1-b]quinazoline-8-carboxamide], for which the ED50 in test [1] stood at 39 mg/kg. Besides, the Biological half-life in test [2] is 56 min.

`CC(C)c1ccc2nc3ccc(C(=O)NCCCCc4cccnc4)cn3c(=O)c2c1` [Compound B, 2-(1-methylethyl)-N-[4-(3-pyridyl)butyl]-11-oxo-11H-pyrido[2,1-b]quinazoline-8-carboxamide] gave a Biological half-life in test [2] of 7 min.

For `CC(C)c1ccc2nc3ccc(C(=O)NCCCCCCc4cccnc4)cn3c(=O)c2c1` [Compound C, 2-(1-Methylethyl)-N-[6-(3-pyridyl)hexyl]-11-oxo-11H-pyrido[2,1-b]quinazoline-8-carboxamide], the ED50 in test [3] (Mus musculus, Platelet, oral, read-out: oral ID50 (Inhibiting Dose), PAF induced mortality) came out at 13 mg/kg. The “prevention of PAF induced mortality” value in test [3] is “prevented PAF induced mortality”.

Values taken from patent publication US4551460A, “Pyrido[2,1-b]quinazoline derivatives useful as agents for treatment of allergic conditions and vascular disorders involving thrombosis” (priority 1983, dated 1985).
